Legend:
Type in all cases: biochemical
[1] = DPPH-scavenging activity versus N-acetyl-L-carnosine (Example 6); conditions: 60 μM DPPH, 5 minutes; FIG. 6
Procedure: 5-S-GAD or N-acetyl-L-carnosine was added to an ethanol solution of 60 μM DPPH for reaction at ambient temperature for 5 minutes. Subsequently, the concentration of the DPPH radical was measured via the absorbance at 517 nm. The DPPH radical concentration in a reaction solution to which distilled water instead of the test substance solution was added, was used as a control. In the same manner as in Example 2, the scavenging ratio (%) of the DPPH radical was calculated and defined as the radical-scavenging activity (see FIG. 6).

[2] = Superoxide anion-scavenging activity, chemiluminescence, versus N-acetyl-L-carnosine (Example 7); conditions: lucigenin chemiluminescence; FIG. 7
Procedure: In a 50 mM carbonate buffer (pH 10) containing 200 μM lucigenin, 100 μM xanthine and 1 mU/mL xanthine oxidase reacted together. The chemiluminescence level depending on the generated superoxide anion (O^2−) was assayed for 10 minutes. The area under the curve indicating the total chemiluminescence over the 10 minutes was calculated. A group to which PBS(−) instead of the test substance solution was added at the same amount as that of the solution, was defined as a control. In the same manner as in Example 3, the effect of 5-S-GAD or N-acetyl-L-carnosine added on the increase of chemiluminescence was examined. The suppressive activity thereof was defined as superoxide anion-scavenging activity (%) (see FIG. 7).

[3] = Superoxide anion-scavenging activity, xanthine/xanthine oxidase, lucigenin chemiluminescence (Example 3); conditions: for Radical-scavenging ratio (%) (superoxide anion-scavenging activity): chemiluminescence AUC over 10 minutes, control = 100, mean, n=2
Procedure: In a 50 mM carbonate buffer (pH 10) containing 200 μM lucigenin, 100 μM xanthine and 1 mU/mL xanthine oxidase reacted together. The chemiluminescence level depending on the generated superoxide anion (O^2−) was assayed with BIOLUMAT (under trade name) (Model type LB 9505, manufactured by EG&G BERTHORD Company) for 10 minutes. The area under the curve indicating the total chemiluminescence over the 10 minutes was calculated. Defining the area under the curve for a group (control) added with PBS(−) instead of the test substance solution at the same amount as that of the solution as 100, the effect of N-β-alanyl-5-S-glutathionyl-3,4-dihydroxyphenylalanine (5-S-GAD) (Table 4) or Carnosine (under trade name) (Table 5) on the increase of chemiluminescence was examined. The suppressive activity thereof was defined as superoxide anion-scavenging activity (%) (mean, n=2; see Table 4, Table 5 and FIG. 3).

[4] = Superoxide anion-scavenging activity, DMPO spin trapping ESR (Example 8); conditions: FIG. 8
Procedure: In a 50 mM phosphate buffer (pH 7.8), 500 μM xanthine and 75 mU/mL xanthine oxidase reacted together. The generated superoxide anion (O^2−) was assayed with a spin trapping agent (DMPO) by the electron spin resonance method (ESR). The resulting signal intensity (I) was normalized with the signal intensity of the inner standard manganese (S). The resulting value was determined as the relative intensity (RI), for comparison between the value in case of the addition of the test substance and the value in case of the addition of PBS. The ESR was measured under the following conditions. MicroWave Powder: 8 mW; Field: 335±5 mT; Scan Time: 2 min; Mod.: 0.1 mT; Amplitude:×125-400; Time Constant: 0.03 sec.

human LDL = experiment: Effect on the oxidation of LDL in human blood, TBARS (Example 11); conditions: LDL + 5 μM CuSO4, TBARS; FIG. 11
Procedure: LDL was prepared by a fractionation and centrifugation method. A fraction at a specific gravity of 1.019 to 1.063 g/mL in serum was defined as human LDL. 5 μM CuSO4, 5-S-GAD (3 to 100 μM) and N-acetyl-carnosine (100 μM to 10 mM) or L-carnosine (10 μM to 10 mM) were added to 0.2 mg/mL LDL, for incubation at 37° C. for 3 hours. After termination of the incubation, TEARS (a substance reactive with thiobarbituric acid) was assayed. Although the TBA reaction is a non-specific reaction, the reaction is used for a method of assaying various lipid peroxide products including malone dialdehyde. An experiment of peroxidation with copper sulfate was done twice (N=2).
An aqueous solution containing 3.75 mg/mL thiobarbituric acid (TBA), 150 mg/mL trichloroacetic acid (TCA) and 0.25 N hydrochloric acid (HCl) was prepared as the TBA reagent, while standard solutions (2, 5, 10, 20, 40 μM) of tetramethoxypropane were prepared. 100 μL each of an LDL sample or a standard solution was added together with 200 μL of the TBA reagent into an Eppendorf tube (1.5 mL), which was then sealed with a cap for thorough mixing. […] The supernatant was assayed of the absorbance (535 nm). Based on the absorbance of the standard solution, a standard curve was prepared. Based on the standard curve, the amount of TBARS in the LDL sample was calculated (in nmol/mg LDL protein) (see FIG. 11).

NCCC(=O)N[C@@H](Cc1cc(O)c(O)c(SC[C@H](NC(=O)CC[C@H](N)C(=O)O)C(=O)NCC(=O)O)c1)C(=O)O [5-S-GAD, N-β-alanyl-5-S-glutathionyl-3,4-dihydroxyphenylalanine]
DPPH radical-scavenging action compared with N-acetyl-L-carnosine (in words) [1]: excellent DPPH radical-scavenging action compared with N-acetyl-L-carnosine | superoxide anion (O^2−)-scavenging action compared with N-acetyl-L-carnosine (in words) [2]: excellent superoxide anion (O^2−)-scavenging action compared with N-acetyl-L-carnosine | Radical-scavenging ratio (%) (superoxide anion-scavenging activity) ([3]; 0.1 μM added): −0.75% | Radical-scavenging ratio (%) (superoxide anion-scavenging activity) ([3]; 1 μM added): 26.03% | Radical-scavenging ratio (%) (superoxide anion-scavenging activity) ([3]; 10 μM added): 78.28% | Radical-scavenging ratio (%) (superoxide anion-scavenging activity) ([3]; 100 μM added): 91.19% | action for scavenging the superoxide anion (O^2−) (in words) ([3]; summary of Table 4, Table 5 and FIG. 3): strong actions for scavenging the superoxide anion (O^2−) | superoxide anion (O^2−)-scavenging action compared with TEMPOL (in words) [4]: excellent superoxide anion (O^2−)-scavenging action compared with TEMPOL | anti-oxidation action compared with N-acetyl-carnosine and L-carnosine (in words) (human LDL): excellent anti-oxidation action compared with N-acetyl-carnosine and L-carnosine

From patent US8304452B2, “Radical scavenger and active oxygen eliminating agent” (InBiotex Inc., priority 2005, dated 2012)
